The EC50 is the concentration at which the effect is half-maximal. A high value points to lower potency in that assay.

SMILES strings stand for the structures.

Assay [1] deals with insulin receptor substrate 1 (IRS-1). The assay is described as follows: Western blot of IRS-1 phosphorylation. The class given is cell-based, human. To be noted: 24 hours. On the procedure: (§1) FIGS. 3A, B, C, E and F show SBI-477 stimulation of glucose uptake and activates insulin signaling in the absence of insulin. Human skeletal myotubes were incubated with SBI-477 at the indicated concentration for 24 hours and then treated with or without insulin (100 nM) for 30 minutes. Glucose ([3H]-2-deoxyglucose, 2-DG) uptake (FIG. 3A) and glycogen synthesis rates (FIGS. 3B and 3C) were measured (n=5) as described in Methods. *p<0.05 vs. Vehicle, no insulin, †p<0.05 vs. Vehicle/insulin by two-way ANOVA with Tukey's post hoc test. (FIG. 3E) Western blot analysis of human myotubes treated with SBI-477 for 24 hours was performed to determine the effect on steps of the insulin signaling pathway using specific Akt and IRS-1 phosphorylation sites as endpoints. Insulin treatment (100 nM) for 30 minutes was used as positive control. (FIG. 3F) Quantitation of the western blot data in […] is shown (n=5). *p<0.05 or **p<0.01 vs. Vehicle by one-way ANOVA with Bonferroni post hoc test. The data represent mean±SD.
(§2) Cells were lysed in the RIPA buffer containing 1% NP-40, 5 mM Na4P2O7, 1 mM EDTA, 20 mM NaF, 2 mM Na3VO4, 1× cOmplete™ protease inhibitor (Roche) and 1 mM phenylmethylsulfonyl fluoride. […] Protein quantification was performed using FluorChemQ (Alpha Innotech) and normalized to […]-actin or total protein where indicated.
(In general: In western blotting, separated proteins are transferred to a membrane and probed.)

Another assay relates to Akt. Description: Western blot of Akt phosphorylation. The conditions noted are these: 24 hours. It is filed as cell-based, human. How it is done:
as §1, §2

Assay [2] concerns primary human skeletal myotubes. Description: Fatty acid oxidation (FAO) assay, 3H-palmitate. The class given is cell-based. The conditions noted are these: 24 hours. How it is done:
FAO rates were determined for primary human skeletal myotubes with or without SBI-477 using 125 μM [3H]-palmitic acid (Djouadi, et al., Mol Genet Metab. 2003; 78(2):112-118). Primary human skeletal myotubes were grown and differentiated in 24-well plates. Cells were treated with the indicated concentration of SBI-477 for 24 hours. Following compound treatment, cells were rinsed three times with PBS and then incubated in 125 μM [3H]-palmitic acid (60 Ci/mmol) bound to fatty acid free albumin containing 1 mM carnitine for 2 hours at 37° C. The cell medium was transferred to a tube containing cold 10% trichloroacetic acid (TCA). The tubes were centrifuged at 8,500×g for 10 minutes at 4° C. The supernatant was immediately removed, mixed with 6N NaOH, and applied to ion-exchange resin (DOWEX 1; Sigma-Aldrich). The eluate was collected, measured by liquid scintillation analyzer (PerkinElmer) and normalized to total protein amount. The amount of cell protein was measured by Micro BCA protein assay kit (Thermo Scientific).

For the next assay, the system named is ARRDC4. Description: ARRDC4 expression by quantitative RT-PCR in human myotubes. The class given is cell-based. To be noted: 24 hours. How it is done:
(§3) FIGS. 4A-C show downregulation of TXNIP and ARRDC4 expression by SBI-477. (FIG. 4A) TXNIP and ARRDC4 mRNA levels as determined by quantitative RT-PCR in human myotubes treated with SBI-477 (10 μM) or DGAT1 inhibitor (DGATi, […]) for 24 hours in the absence or presence of 100 μM oleate (n=4). Expression is shown relative to vehicle/BSA treatment. (FIG. 4B) TXNIP gene expression following exposure to a dose range of SBI-477 for 24 hours (n=4). (FIG. 4C) Left, Effect of SBI-477 on TXNIP protein levels as determined by western blot analysis by SBI-477. Right, Quantitation of the TXNIP western blot data is shown (n=5). *p<0.05 vs. Vehicle/BSA control, †p<0.05 vs. Vehicle/oleate by one-way ANOVA with Bonferroni post hoc test. The data are shown as mean±SD.
(§4) Total RNA was isolated using RNeasy Mini Kit (Qiagen) according to the manufacturer's instructions. cDNA was synthesized using the Affinity Script cDNA Synthesis Kit (Stratagene) with 0.5 μg of total RNA. PCR reactions were performed in triplicate […] Roche LightCycler® 480 Instrument II) with specific primers for each gene.

Another assay relates to TXNIP. The assay is described as follows: TXNIP expression by quantitative RT-PCR in human myotubes. It is filed as cell-based. The conditions noted are these: 24 hours. On the procedure: as §3, §4
A further assay relates to S6K. Description: Western blot of pS6K (T389). The class given is cell-based, human. To be noted: 24 hours. On the procedure: FIGS. 3D and G show SBI-477-mediated increase in glucose uptake in oleate-loaded skeletal myotubes (FIG. 3D) SBI-477 increases glucose uptake in oleate-loaded human skeletal myotubes. Basal and insulin-stimulated [3H]2-DG uptake was measured in human skeletal myotubes following treatment with SBI-477 for 24 hours in the presence of 100 μM oleate or BSA as a control. *p<0.05 vs. vehicle, †p<0.05 vs. vehicle/insulin by one-way ANOVA with Bonferroni post hoc test. FIG. 3G—Western blot analysis (left) of human myotubes treated with SBI-477 for 24 hours was performed to determine activation of S6K and AMPK using the indicated phospho-specific antibodies. Insulin treatment (100 nM) for 30 minutes was used as positive control. Quantitation (right) of the Western blot data is shown (n=4-5). *p<0.05 vs. Vehicle by one-way ANOVA with Bonferroni post hoc test. The data represent mean±SD.
Cells were lysed in the RIPA buffer containing 1% NP-40, 5 mM Na4P2O7, 1 mM EDTA, 20 mM NaF, 2 mM Na3VO4, 1× cOmplete™ protease inhibitor (Roche) and 1 mM phenylmethylsulfonyl fluoride. Whole cell lysates were subjected to SDS-PAGE and transferred to a nitrocellulose membrane. The blots were hybridized with specific antibodies and developed with enhanced chemiluminescence kit (Pierce). […] Protein quantification was performed using FluorChemQ (Alpha Innotech) and normalized to […]-actin or total protein where indicated.

In the next assay the test system is DGAT1/2. The assay is described as follows: Direct inhibition of DGAT1/2 activity. The class given is biochemical. To be noted: data not shown.
The next assay has as its system rat H9c2 myocytes. The assay is described as follows: Inhibition of TAG accumulation in rat H9c2 myocytes. The conditions noted are these: data not shown. The class given is cell-based.

`COc1ccc(-c2csc(NC(=O)c3ccc(OCC(=O)N4CCOCC4)c(OC)c3)n2)cc1` [Cpd. 7, 3-methoxy-N-(4-(4-methoxyphenyl)thiazol-2-yl)-4-(2-morpholino-2-oxoethoxy)benzamide]: the “IRS-1 phosphorylation at serine sites 636/639” value in assay [1] is reported as “decreased”. Further, in assay [1] (absence of insulin), the “Tyrosine phosphorylation of IRS-1” value is “increased”. Moreover, the “Phosphorylation of Akt” value in the assay on Akt was “also increased”. Besides, the FAO rates result in assay [2] was “increased by SBI-477 in a dose-dependent manner”. Besides, the ARRDC4 expression entry in the assay with ARRDC4 is “robust, dose-dependent downregulation”. The TXNIP expression entry in the assay with TXNIP is “robust, dose-dependent downregulation”. In the assay on S6K, the “Levels of pS6K (T389)” value was “reduced”. In addition, the “Direct inhibition of DGAT1/2 activity” value with DGAT1/2 is reported as “not found that SBI-477 directly inhibits”. The compound also displayed an EC50 in the assay with rat H9c2 myocytes of around 0.1 µM.

For the origin of these results see patent US11028061B2, “Modulators of myocyte lipid accumulation and insulin resistance and methods of use thereof” (Sanford Burnham Prebys Medical Discovery Institute, priority 2015, dated 2021).
